The values below come from PubChem BioAssay AID1963421 (Molecular Pharmacology Branch, DTP, NCI, 2024).

What is called viability, T/C is the ratio of treated to control. Usually IC50 stands for the midpoint of a concentration-inhibition curve.

This experiment relates to 519858-162-T-J1-PDC complex spheroid growth, % test/control. The experiment is described as follows: Anticancer human tumor 519858-162-T-J1-PDC patient-derived colon adenocarcinoma cell line growth inhibition [Asc]. The note with it: for viability, T/C: stronger effect = lower value. As for the experimental part: Multicellular complex tumor spheroid response to apoptosis pathway targeting inhibitors Alrizomadlin, Pelcitoclax, and Dasminapant in combination with a variety of drugs and investigational agents in selected tumor cell lines
The MDM2 inhibitor alrizomadlin, the Bcl-2/Bcl-xL inhibitor pelcitoclax, and the IAPs inhibitor dasminapant were evaluated both individually and in combination with standard of care and investigational anticancer small molecules within a complex spheroid model of solid tumors. . Complex spheroids include a stromal component modeled by human endothelial cells (HUVEC) and fibroblasts modeled by human mesenchymal stem cells (MSCs). The concentration ranges selected for each drug and investigational agent were based upon clinically achievable concentrations if the clinical Cmax of the agent was known.
Compounds. The drugs and investigational agents: alrizomadlin (APG-115; NSC831270), pelcitoclax (APG-1252; NSC835773), dasminapant (APG-1387;NSC834197), TAK-243 (NSC785004), copanlisib (NSC809693), olaparib (NSC753686), talazoparib (NSC767125), cobimetinib (NSC 768068), eltanexor (KPT-8602, NSC 794443), abemaciclib (NSC 768073), sotorasib (NSC818433), adagrasib (NSC 831453), MRTX-1133 (NSC 836407), Iadademestat (ORY1001, NSC 806812), and RMC-4630 (NSC839698), were obtained from the NCI Developmental Therapeutics Program Chemical Repository. The FDA-approved anticancer drug set is available from the Developmental Therapeutics Program at https://dtp.cancer.gov/organization/dscb/obtaining/available plates.htm. […] The stock solutions were prepared in dimethyl sulfoxide (DMSO, Sigma-Aldrich, St. Louis, MO, cat. D2650) at 800-fold the tested concentration and stored at -70 degrees C prior to their use. All drugs and investigational agents were tested over a range starting from a high concentration at or near the clinical Cmax and decreasing in half-log increments. If the clinical Cmax for an agent had not been determined, the highest concentration tested was 10 microM.
The patient-derived cancer (PDC) cell lines include five colon adenocarcinomas: 186277-243-T-J2-PDC, 616215-338-R-J1-PDC, 439559-082-T-J2-PDC, 463943-066-T-J2-PDC, and 519858-162-T-J1-PDC; three pancreatic carcinomas: 323965-272-R-J2-PDC, 521955-158-R6-J3-PDC, and 521955-158-R2-J5-PDC; two uterine sarcomas: 327498-152-R-J2-PDC and 993429-296-R-J1-PDC; two rhabdomyosarcomas: 755483-174-R-J1-PDC and 772245-204-R-J1-PDC; two soft tissue sarcomas: 126254-015-R-J1-PDC and 494315-158-R-J1-PDC; two malignant fibrous histiocytomas: 317291-083-R-J1-PDC and 596521-263-R-J1-PDC; two breast carcinomas: 171881-019-R-J1-PDC and 885512-296-R-J2-PDC; and one ovarian carcinoma: 6556581-035-R-J-PDC were obtained from the NCI PDMR, (https://pdmr.cancer.gov). The established cell lines HSSY-2 synovial sarcoma (RRID:CVCL 8719), SYO-1 synovial sarcoma (RRID:CVCL_7146), MPNST malignant peripheral neural sheath tumor were obtained from the Sloan Kettering Institute. The following established cell lines were purchased from the American Type Culture Collection (ATCC, Manassas, VA), Sor the received from the NCI repository:, PANC-1 pancreatic carcinoma (CRL-1469, RRID:CVCL_0480), OVCAR-5 ovarian carcinoma (RRID:CVCL_1628), OVCAR-8 ovarian carcinoma (RRID:CVCL_1629), , MCF-7 breast carcinoma (CRL-12584, RRID:CVCL_0031), MDA-MB-231 breast carcinoma (CRL-12532, RRID:CVCL_0062), NCI-H1876 small cell lung carcinoma (CRL-5902, RRID:CVCL_1503), NCI-H510A small cell lung carcinoma (HTB-184, RRID:CVCL_1565), NCI-H1417 (CRL-5869, RRID:CVCL_1469), and NCI-H196 small cell lung carcinoma (CRL-5823, RRID:CVCL_1509). Dr. Peter Houghton (Greehey Children's Cancer Research Institute, University of Texas Health Science Center, San Antonio, TX) provided Rh-18 rhabdomyosarcoma (RRID:CVCL_1659). Pooled donor human umbilical vein endothelial cells (HUVEC, Lonza, cat. CC-2519) and human mesenchymal stem cells (hMSC, Lonza, cat. PT-2501) were purchased from Lonza (Walkersville, MD).
Cell Culture. […]

The mark [1] stands for this setting: compound alone, run of 11/07/2022.

“And” between values parts separate entries of the source, which are not always exact repeats. Equal entries are not always repeated.
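Note: seven day drug exposure begun three days after spheroid seeding.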
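Throughout, for viability, T/C: 100% = DMSO vehicle wells and lower values mean less viable spheroid.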

As for `C#Cc1c(F)ccc2cc(O)cc(-c3ncc4c(N5CC6CCC(C5)N6)nc(OCC56CCCN5CC(F)C6)nc4c3F)c12` (stereo not drawn), the viability, T/C runs as follows: (compound 0.0316 µM) 89.4% and 98.1% and 81.9%; (compound 0.1 µM) 126% and 101% and 93.3%; (compound 0.316 µM) 102% and 92.8% and 90.6%; (compound 1 µM) 88.3% and 89.3% and 83.3%; (compound 3.16 µM) 86.9% and 78.3% and 64.9%; (compound 10 µM) 68.7% and 66.2% and 72.1%. Besides, the IC50 (curve of compound) is more than 10000 nM.

In the case of `C=C(F)C(=O)N1CCN(c2nc(OCC3CCCN3C)nc3c2CCN(c2cccc4cccc(Cl)c24)C3)CC1CC#N` (stereo not drawn), the viability, T/C runs as follows: (compound 0.0316 µM) 95.4% and 95.7% and 94%; (compound 0.1 µM) 109% and 79.9% and 106%; (compound 0.316 µM) 97% and 96.7% and 84.9%; (compound 1 µM) 89.8% and 92.8% and 78.1%; (compound 3.16 µM) 94.5% and 80.9% and 93.3%; (compound 10 µM) 97.4% and 72.3% and 43%. Moreover, the IC50 (curve of compound) is > 10000 nM and 8440 nM.

Regarding `C=CC(=O)N1CCN(c2nc(=O)n(-c3c(C)ccnc3C(C)C)c3nc(-c4c(O)cccc4F)c(F)cc23)C(C)C1` (stereo not drawn), the viability, T/C was 97.6% and 65.2% and 101% (compound 0.0316 µM); 87.3% and 70.7% and 109% (compound 0.1 µM); 105% and 85.9% and 110% (compound 0.316 µM); 87.3% and 95.3% and 117% (compound 1 µM); 82.4% and 70.7% and 96.5% (compound 3.16 µM); 93.6% and 72% and 104% (compound 10 µM). Moreover, the concentration for half-maximal inhibition (IC50) (curve of compound) was more than 10000 nM.

As to `CCN1C(C(=O)NC23CCC(C(=O)O)(CC2)CC3)C(c2cccc(Cl)c2F)C2(C(=O)Nc3cc(Cl)ccc32)C12CCCCC2` (stereo not drawn), the half-maximal inhibitory concentration (IC50) reads like this: under setting [1], more than 3000 nM; (curve of compound) more than 3000 nM.

`CCN1CCN(Cc2ccc(Nc3ncc(F)c(-c4cc(F)c5nc(C)n(C(C)C)c5c4)n3)nc2)CC1`: the viability, T/C reads like this: (compound 0.00316 µM) 112% and 91.6% and 83.9%; (compound 0.01 µM) 104% and 98.3% and 105%; (compound 0.0316 µM) 91% and 73.6% and 115%; (compound 0.1 µM) 87.1% and 75.9% and 100%; (compound 0.316 µM) 73.9% and 61.4% and 72.9%; (compound 1 µM) 62% and 46.7% and 81.3%. Moreover, the concentration for half-maximal inhibition (IC50) (curve of compound) was > 1000 nM and 793 nM.

As for `CNC(C)C(=O)NC1CN(S(=O)(=O)c2cccc(S(=O)(=O)N3CCC4CCC(C(=O)NC(c5ccccc5)c5ccccc5)N4C(=O)C(NC(=O)C(C)NC)C3)c2)CCC2CCC(C(=O)NC(c3ccccc3)c3ccccc3)N2C1=O` (stereo not drawn), the IC50 runs as follows: (compound alone, run of 11/15/2022) more than 1000 nM; (curve of compound) more than 1000 nM.

Consider `COc1c(OCCCN2CCOCC2)ccc2c3n(c(=NC(=O)c4cnc(N)nc4)nc12)CCN3`, for which the viability, T/C (compound 0.00316 µM) is 88.7% and 89.2% and 87.3%; the viability, T/C (compound 0.01 µM) was 106% and 82.6% and 84%; the viability, T/C (compound 0.0316 µM) was 91.1% and 79.6% and 45.8%; the viability, T/C (compound 0.1 µM) is 62.9% and 81.2% and 48.9%; the viability, T/C (compound 0.316 µM) is 50.7% and 65.9% and 55.2%; the viability, T/C (compound 1 µM) is 29.3% and 51.5% and 45.5%.

Take `Cc1c(S(C)(=O)=O)c(-c2cc(F)cc(N3CCN(c4ccc(NS(=O)(=O)c5ccc(NC(CCN6CCC(C(=O)OCCCP(=O)(O)O)CC6)CSc6ccccc6)c(S(=O)(=O)C(F)(F)F)c5)cc4)CC3)c2)c(-c2ccc(Cl)cc2)n1C(C)C` (stereo not drawn): the viability, T/C by setting is: (compound 0.0316 µM) 89.8% [middle of 7 runs]; (compound 1 µM) 95.1% [middle of 7 runs]. The IC50 under setting [1] was more than 10000 nM.

`Cc1nc(N2CCC3(CC2)COC(C)C3N)c(CO)nc1Sc1ccnc(N)c1Cl` (stereo not drawn): the viability, T/C by setting is: (compound 0.00949 µM) 94.3% and 68.7% and 97.6%; (compound 0.03 µM) 86.9% and 76% and 58.9%; (compound 0.0949 µM) 76.2% and 77.3% and 83.6%; (compound 0.3 µM) 76.3% and 77.2% and 97.4%; (compound 0.949 µM) 76.3% and 78.3% and 53%; (compound 3 µM) 70.9% and 57.7% and 49.1%. The IC50 (curve of compound) was > 3000 nM and 2290 nM.

Turning to `Cn1ncnc1[C@H]1c2n[nH]c(=O)c3cc(F)cc(c23)N[C@@H]1c1ccc(F)cc1`, the viability, T/C runs as follows: (compound 0.000316 µM) 87.9% and 91% and 92%; (compound 0.001 µM) 97.2% and 98.2% and 79.8%; (compound 0.00316 µM) 99.3% and 92.3% and 101%; (compound 0.01 µM) 82.6% and 96.8% and 94.9%; (compound 0.0316 µM) 90.9% and 81.5% and 68.7%; (compound 0.1 µM) 96.8% and 78.6% and 84.5%. Further, where the note is “curve of compound”, the IC50 is more than 100 nM.

Consider `NC(=O)C(=Cn1cnc(-c2cc(C(F)(F)F)cc(C(F)(F)F)c2)n1)c1cncnc1`, for which the viability, T/C is, setting by setting: (compound 0.000949 µM) 106% and 86.6% and 101%; (compound 0.003 µM) 105% and 110% and 63.5%; (compound 0.00949 µM) 101% and 62.7% and 81.4%; (compound 0.03 µM) 87.2% and 69% and 97.2%; (compound 0.0949 µM) 89.4% and 72.2% and 65.5%; (compound 0.3 µM) 72.1% and 90.1% and 82.9%. For the setting “curve of compound”, the IC50 is more than 300 nM.

`NC1CCC(NC2CC2c2ccccc2)CC1` (stereo not drawn): the viability, T/C was 104% and 97.4% and 118% (compound 0.000316 µM); 95.6% and 118% and 95.5% (compound 0.001 µM); 86.1% and 99% and 95.9% (compound 0.00316 µM); 99.9% and 127% and 86.2% (compound 0.01 µM); 129% and 85.6% and 94.6% (compound 0.0316 µM); 113% and 111% and 102% (compound 0.1 µM). Further, the IC50 (curve of compound) is more than 100 nM.

Turning to `O=C(c1cc(Cc2n[nH]c(=O)c3ccccc23)ccc1F)N1CCN(C(=O)C2CC2)CC1`, the viability, T/C (compound 0.0316 µM) is 80.7% and 96.9% and 79.1%; the viability, T/C (compound 0.1 µM) is 93.5% and 79.1% and 92.7%; the viability, T/C (compound 0.316 µM) is 80.5% and 81.3% and 77.4%; the viability, T/C (compound 1 µM) was 96.3% and 112% and 117%; the viability, T/C (compound 3.16 µM) was 97.3% and 89.7% and 106%; the viability, T/C (compound 10 µM) is 94.3% and 70.3% and 86.1%. Besides, the IC50 (curve of compound) was more than 10000 nM.

`O=C(c1ccc(F)c(F)c1Nc1ccc(I)cc1F)N1CC(O)([C@@H]2CCCCN2)C1`: the viability, T/C reads like this: (compound 0.00316 µM) 85.1% and 106% and 91%; (compound 0.01 µM) 92.7% and 96% and 89.8%; (compound 0.0316 µM) 61.4% and 68.8% and 91.4%; (compound 0.1 µM) 71.8% and 85.1% and 80.8%; (compound 0.316 µM) 38.6% and 49.1% and 46.9%; (compound 1 µM) 18.4% and 19.7% and 19.3%. Moreover, the IC50 (curve of compound) was 202 nM and 325 nM and 284 nM.
